Measured values published in patent US9339554B2, “Tunable, biodegradable linker molecules for transient conjugation of components in drug delivery systems, and drug delivery systems prepared therewith” (CRISTAL DELIVERY B.V., priority 2010, dated 2016).

Assay: In vitro release of DMS from DMS-prodrug-loaded core-cross-linked polymeric micelles
Type: physicochemical
Conditions: for 50% release of DMS: physiological conditions, prodrug covalently entrapped in CCL PM
Procedure: The eluent was acetonitril/H2O (23:77, v/v) with a flow rate of 1 mL/min. The sample volume was 7.5 μL. UV detection occurred at 246 nm.
The hydrolysis rate of a specific ester was pH-dependent in its turn, in that at pH 8.4 hydrolysis was accelerated as compared to the hydrolysis rate at pH 7.4. […] The same trend is consistently observed at different pH (i.e. 7.4 and 8.4) and for the different types of micelles (based on HPMAm and HEMAm).

With C=C(C)C(=O)OCCS(=O)(=O)CC(=O)OCC(=O)[C@@]1(O)[C@H](C)CC2[C@@H]3CCC4=CC(=O)C=C[C@]4(C)[C@@]3(F)[C@@H](O)CC21C (stereo partly drawn) [DMSL3, 2-(2-(2-((8S,9R,10S,11S,16R,17R)-9-fluoro-11,17-dihydroxy-10,13,16-trimethyl-3-oxo-6,7,8,9,10,11,12,13,14,15,16,17-dodecahydro-3H-cyclopenta[α]phenanthren-17-yl)-2-oxoethoxy)-2-oxoethylsulfonyl)ethyl methacrylate] the “50% release of DMS” value was roughly 1 weeks.
In the case of C=C(C)C(=O)OCCSCC(=O)OCC(=O)[C@@]1(O)[C@H](C)CC2[C@@H]3CCC4=CC(=O)C=C[C@]4(C)[C@@]3(F)[C@@H](O)CC21C (stereo partly drawn) [DMSL1, 2-(2-(2-((8S,9R,10S,11S,16R,17R)-9-fluoro-11,17-dihydroxy-10,13,16-trimethyl-3-oxo-6,7,8,9,10,11,12,13,14,15,16,17-dodecahydro-3H-cyclopenta[α]phenanthren-17-yl)-2-oxoethoxy)-2-oxoethylthio)ethyl methacrylate], the “50% release of DMS” value is reported as roughly 4 weeks and the “DMS release rate followed by UPLC” value (prodrug CCL PM, buffer pH 7.4 / 8.4, 37° C.) is reported as “very slow release”.
